Source: patent US5223526A, “Pyrazole carboxanilide fungicides and use” (Monsanto Company, priority 1992, dated 1993)
Like-named read-outs stand apart in the source and are kept apart here.

Columns and labels:
Rhizoctonia solani = test: Rice sheath blight; type: in vivo; parameters: scale not given here; conditions: inoculated two days later, rated after 7 days, average of five plants; for Disease Control Rating at 0.02 mg/mL: foliage and soil sprayed with 0.02 mg/mL; for Disease Control Rating at 0.1 mg/mL: foliage and soil sprayed with 0.1 mg/mL; for Disease Control Rating at 0.5 mg/mL: foliage and soil sprayed with 0.5 mg/mL
Method in brief: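 Rice plants 11–15 days old had foliage and soil sprayed with 0.5, 0.1 or 0.02 mg/mL Compound A in water/acetone/Tween 20, then kept in flooded trays. Two days later, rice-grain Rhizoctonia solani inoculum went to plant bases; disease control scored versus untreated after 7 days at 25 °C, high humidity, averaging five plants.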

succinate dehydrogenase = target: T1, succinate dehydrogenase (Botrytis cinerea, UniProt A0A384J5E4+A0A384J8V8+A0A384JHJ5); test: Enzyme inhibition: succinate dehydrogenase activity in Botrytis cinerea mitochondria (DCPIP reduction); type: biochemical
T1 construct: succinate-DCPIP reductase assay with KCN
Method in brief: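 Crude mitochondria from Botrytis cinerea isolate Nick mycelia, prepared by bead-beating and differential centrifugation, started reactions. SDH activity followed as DCPIP reduction at 600 nm in 50 mM K-phosphate pH 7.2 with 1 mM KCN, 45 μM DCPIP, 17 mM succinate, 1% acetone. I50 from semilog inhibition plots, corrected for succinate-free rates.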

Botrytis cinerea [1] = test: Eggplant grey mold; type: in vivo; parameters: scale not given here; conditions: inoculated 24 h later, rated after 3-4 days; for Disease Control Rating at 20 ppm: eggplant sprayed with 20 ppm; for Disease Control Rating at 100 ppm: eggplant sprayed with 100 ppm; for Disease Control Rating at 500 ppm: eggplant sprayed with 500 ppm
Method in brief: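 Protective test: compound formulations (2:3 acetone:water, 0.5% Tween 20; 500, 100 or 20 ppm) sprayed on 14-18-day-old plants, with spore inoculum (4×10^6 spore/mL) applied a day later. Disease control rated on Botrytis lesions after 3-4 days at 23 °C and 100% humidity.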

Botrytis cinerea [2] = test: Vine grey mold (grape berries); type: in vivo; conditions: average of six berries, 7-10 days; for pest or weed control at 50 ppm: grape berries treated with 50 ppm, read-out: % DISEASE CONTROL 50 ppm; for pest or weed control at 200 ppm: grape berries treated with 200 ppm, read-out: % DISEASE CONTROL 200 ppm
Method in brief: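 Preventive berry test: compound at 50 or 200 ppm (acetone/water, 0.05% Tween 20) applied one day before inoculation with 10^6 spores/mL Botrytis conidia. After 7-10 days at 20 °C under 12 h light, infected surface area rated; disease control expressed as percent reduction from control mean; repeated-test values averaged.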

[3] = concentration required to inhibit the rate of DCPIP reduction by 50%; Botrytis cinerea isolate Nick mitochondria; read-out: I50 (μM conc.)

T1 sequence (A0A384J5E4 1-300): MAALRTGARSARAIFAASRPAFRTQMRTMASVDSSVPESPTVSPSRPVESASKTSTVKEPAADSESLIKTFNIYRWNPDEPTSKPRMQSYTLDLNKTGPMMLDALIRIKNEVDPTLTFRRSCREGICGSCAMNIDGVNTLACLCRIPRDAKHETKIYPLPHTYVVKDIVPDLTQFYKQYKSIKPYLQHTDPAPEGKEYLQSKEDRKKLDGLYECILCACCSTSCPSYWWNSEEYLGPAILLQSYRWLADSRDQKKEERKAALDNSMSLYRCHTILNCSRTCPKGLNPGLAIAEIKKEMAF
T1 sequence (A0A384J8V8 1-189): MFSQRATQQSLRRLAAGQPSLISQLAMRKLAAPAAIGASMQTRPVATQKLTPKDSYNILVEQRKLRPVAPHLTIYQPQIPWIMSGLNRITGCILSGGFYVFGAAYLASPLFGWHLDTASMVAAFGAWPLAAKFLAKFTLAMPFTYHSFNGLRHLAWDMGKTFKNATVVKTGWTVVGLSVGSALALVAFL
T1 sequence (A0A384JHJ5 1-192): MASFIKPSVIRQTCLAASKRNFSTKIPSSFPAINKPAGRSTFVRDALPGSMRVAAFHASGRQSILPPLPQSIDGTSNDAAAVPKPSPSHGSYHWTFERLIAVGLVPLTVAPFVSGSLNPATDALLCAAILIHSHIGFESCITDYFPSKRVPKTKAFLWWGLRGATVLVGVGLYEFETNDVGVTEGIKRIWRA
T1 sequence (A0A384K456 1-647 partner): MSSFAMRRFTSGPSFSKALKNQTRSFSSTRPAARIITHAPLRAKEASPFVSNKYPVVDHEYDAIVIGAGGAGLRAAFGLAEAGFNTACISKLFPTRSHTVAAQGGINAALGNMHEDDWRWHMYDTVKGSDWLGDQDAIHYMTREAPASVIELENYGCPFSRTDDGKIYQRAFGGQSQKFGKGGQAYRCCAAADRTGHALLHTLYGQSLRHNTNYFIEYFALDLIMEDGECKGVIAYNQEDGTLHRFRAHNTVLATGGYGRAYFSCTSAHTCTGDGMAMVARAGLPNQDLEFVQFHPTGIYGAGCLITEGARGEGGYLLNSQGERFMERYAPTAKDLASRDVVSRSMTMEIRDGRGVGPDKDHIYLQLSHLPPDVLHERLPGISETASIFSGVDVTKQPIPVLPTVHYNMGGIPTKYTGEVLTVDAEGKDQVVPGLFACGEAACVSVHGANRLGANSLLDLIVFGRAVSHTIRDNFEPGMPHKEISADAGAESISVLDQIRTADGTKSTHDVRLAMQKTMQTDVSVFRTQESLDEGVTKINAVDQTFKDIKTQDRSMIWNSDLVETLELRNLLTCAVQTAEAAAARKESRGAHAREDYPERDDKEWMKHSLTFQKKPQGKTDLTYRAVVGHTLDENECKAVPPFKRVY

| SMILES | Disease Control Rating at 0.02 mg/mL (Rhizoctonia solani) | Disease Control Rating at 0.1 mg/mL (Rhizoctonia solani) | Disease Control Rating at 0.5 mg/mL (Rhizoctonia solani) | IC50 (succinate dehydrogenase; [3]) [µM] | Disease Control Rating at 20 ppm (Botrytis cinerea [1]) | Disease Control Rating at 100 ppm (Botrytis cinerea [1]) | Disease Control Rating at 500 ppm (Botrytis cinerea [1]) | pest or weed control at 50 ppm (Botrytis cinerea [2]) [%] | pest or weed control at 200 ppm (Botrytis cinerea [2]) [%] | IC50 (succinate dehydrogenase; read-out: I50 (μM conc.); concentration required to inhibit the rate of DCPIP reduction by 50%; Botrytis cinerea isolate Nick mitochondria) [µM] |
| --- | --- | --- | --- | --- | --- | --- | --- | --- | --- | --- |
| Cn1cc(C(=O)Nc2ccccc2C2=CCCCC2)c(C(F)(F)F)n1 [Example 110, 1H-pyrazole-4-carboxamide, N-[2-(1-cyclohexen-1-yl)phenyl]-1-methyl-3-(trifluoromethyl)-] | 0 | 0 | 3 | 0.019 | 1 | 2 | 2 | 97 | 100 |  |
| Cn1cc(C(=O)Nc2ccccc2C2=CCCCCCC2)c(C(F)F)n1 [Example 119] |  |  | 2 |  | 0 | 1 | 2 | 73 | 84 | 0.0035 |
| Cn1cc(C(=O)Nc2ccccc2C2=CC(C)(C)CC(C)(C)C2)c(C(F)F)n1 [Example 121, 1H-pyrazole-4-carboxamide, 3-(difluoromethyl)-1-methyl-N-[2-(3,3,5,5-tetramethyl-1-cyclohexen-1-yl)phenyl]-] | 1 | 3 | 3 | 0.0069 | 0 | 0 | 1 | 33 | 64 |  |
| Cn1cc(C(=O)Nc2ccccc2OCC2CCC2)c(C(F)(F)F)n1 [Example 43, 1H-pyrazole-4-carboxamide, N-[2-(cyclobutylmethoxy)phenyl]-1-methyl-3-(trifluoromethyl)-] | 2 | 3 | 3 | 0.38 |  |  | 0 | 3 | 0 |  |
| Cn1cc(C(=O)Nc2ccccc2C2CCCCC2)c(C#N)n1 [Example 4, 1H-pyrazole-4-carboxamide, 3-cyano-N-(2-cyclohexylphenyl)-1-methyl-] |  |  | 0 | 0.065 | 1 | 2 | 2 | 29 | 58 |  |
| C[C@@H]1CCC[C@H](C)[C@H]1Oc1ccccc1NC(=O)c1cn(C)nc1C(F)(F)F [Example 76, 1H-pyrazole-4-Carboxamide, 1 methyl-N-[2-[(2,6-dimethylcyclohexyl)oxy]phenyl]-3-(trifluoromethyl)-, (1alpha,2beta,6beta)-] |  |  | 0 | 0.032 |  |  | 0 | 8 | 0 |  |
| C=CCn1cc(C(=O)Nc2ccccc2C2CCCCC2)c(C(F)F)n1 [Example 14, 1H-pyrazole-4-carboxamide, N-(2-cyclohexylphenyl)-3-(difluoromethyl)-1-(2-propenyl)-] |  |  | 1 | 0.29 |  |  | 0 | 0 | 0 |  |
| Cn1cc(C(=O)Nc2ccccc2OCC2CCC2)c(C(F)F)n1 [Example 42, 1H-pyrazole-4-carboxamide, N-[2-(cyclobutylmethoxy)phenyl]-3-(difluoromethyl)-1-methyl-] | 2 | 3 | 3 | 0.2 |  |  | 0 | 0 | 25 |  |
| Cc1nn(C)c(C)c1C(=O)Nc1ccccc1C1CCCCC1 [Example 30, 1H-pyrazole-4-carboxamide, N-(2-cyclohexylphenyl)-1,3,5-trimethyl-] | 2 | 3 | 3 | 0.34 | 0 | 2 | 2 | 75 | 59 |  |
| Cn1cc(C(=O)Nc2ccccc2C2=CCC(C(C)(C)C)CC2)c(C(F)F)n1 (stereo not shown) [Example 132, 1H-pyrazole-4-carboxamide, 3-(difluoromethyl)-N-[2-[4-(1,1-dimethylethyl)-1-cyclohexen-1-yl]phenyl]-1-methyl-] | 1 | 2 | 3 | 0.0035 |  |  | 0 | 50 | 51 |  |
| Cn1cc(C(=O)Nc2ccccc2C=C2CCCCCC2)c(C(F)(F)F)n1 [Example 143, 1H-pyrazole-4-carboxamide, N-[2-(cycloheptylidenemethyl)phenyl]-1-methyl-3-(trifluoromethyl)-] |  |  | 3 | 0.025 | 0 | 0 | 0 | 33 | 36 |  |
| Cn1cc(C(=O)Nc2ccccc2C2CCCCC2)c(C(F)(F)F)n1 [Example 2, 1H-pyrazole-4-carboxamide, N-(2-cyclohexylphenyl)-1-methyl-3-(trifluoromethyl)-] | 3 | 3 | 3 | 0.012 | 1 | 3 | 3 | 84 | 87 |  |
